This passage reports LC retention time results from the RepoRT retention time repository (doi:10.1016/j.aca.2011.01.006).

The series can be described thus: Waters SunFire C18, 150 × 2.1 mm, 3.5 µm, 35 °C, 0.3 mL/min, estimated dead time 1.1 min; A: water + 0.1% formic acid; B: acetonitrile + 0.1% formic acid; gradient (min/%B) 0/20 5/20 20/50 25/100. The following applies: stereoisomer not certain.
Regarding `CC12C=CC(=O)C=C1CCC1C2C(=O)CC2(C)C1CCC2(O)C(=O)CO` (stereo unspecified), the LC retention time was 12.4 min.
The result for `COc1ccccc1OCC(O)COC(N)=O` (stereo unspecified) reads 6.4 min; that for `CCCCC1C(=O)N(c2ccccc2)N(c2ccccc2)C1=O`, 24 min.
The result for `Cc1cc(NC(=O)C2=C(O)c3ccccc3S(=O)(=O)N2C)no1` reads 21.4 min.
The result for `CN1CC(=O)N2C(Cc3c([nH]c4ccccc34)C2c2ccc3c(c2)OCO3)C1=O` (stereo unspecified) reads 17.4 min; that for `CN1C(C(=O)Nc2ccc(O)cn2)=C(O)c2ccccc2S1(=O)=O`, 15.8 min; that for `Cc1onc(-c2ccccc2)c1-c1ccc(S(N)(=O)=O)cc1`, 18.5 min.
Consider `Cc1cccc(Nc2ccncc2S(=O)(=O)NC(=O)NC(C)C)c1`, for which the LC retention time is 8.5 min.
The figure for `CCN(CC)C(=O)c1cccnc1` is 2.4 min; for `CN1C(C(=O)Nc2ccccn2)=C(O)c2sccc2S1(=O)=O` it is 9 min; for `CN1C(C(=O)Nc2ccccn2)=C(O)c2ccccc2S1(=O)=O` it is 15.2 min.
The result for `CN(C)CCCN1c2ccccc2CCc2ccccc21` reads 9.6 min; that for `CN(C)CCCN1c2ccccc2Sc2ccccc21`, 8.8 min.
In the case of `CCC(=O)NS(=O)(=O)c1ccc(-c2c(-c3ccccc3)noc2C)cc1`, the LC retention time is 21.8 min.
As for `COc1cc(CNC(=O)CCCCC=CC(C)C)ccc1O`, the LC retention time was 22.6 min.
For the molecule `CN(C)CCOC(c1ccccc1)c1ccccc1`, the LC retention time is 5.1 min.
The result for `CC(=O)SC1CC2=CC(=O)CCC2(C)C2CCC3(C)C(CCC34CCC(=O)O4)C12` (stereo unspecified) reads 22 min; that for `CC[N+]1(CC)CCC(=C(c2ccccc2)c2ccccc2)C1C` (stereo unspecified), 9.6 min; that for `CCCc1nn(C)c2c(=O)[nH]c(-c3cc(S(=O)(=O)N4CCN(C)CC4)ccc3OCC)nc12`, 8.2 min.
The figure for `CCN(CC)CCOC(=O)C(Cc1cccc2ccccc12)CC1CCCO1` (stereo unspecified) is 11.1 min; for `CN1C2CCC1C(C(=O)O)C(OC(=O)c1ccccc1)C2` (stereo unspecified) it is 2.6 min.
The result for `COc1cccc(C2(O)CCCCC2CN(C)C)c1` (stereo unspecified) reads 1.9 min; that for `Cc1cc(=O)n(-c2ccccc2)n1C`, 4.1 min.
`O=C1CN(N=Cc2ccc(-c3ccc([N+](=O)[O-])cc3)o2)C(=O)N1`: the LC retention time was 15.5 min.
The result for `CC1(C)OC2CC3C4CCC5=CC(=O)C=CC5(C)C4C(O)CC3(C)C2(C(=O)CO)O1` (stereo unspecified) reads 16.5 min; that for `COC(=O)C1CC2=CC(=O)CCC2(C)C23OC2CC2(C)C(CCC24CCC(=O)O4)C13` (stereo unspecified), 15.1 min.
Regarding `CCC1(c2ccccc2)C(=O)NC(=O)NC1=O`, the LC retention time was 4.9 min.
The figure for `CC1CC2C3CCC4=CC(=O)C=CC4(C)C3C(=O)CC2(C)C1(O)C(=O)CO` (stereo unspecified) is 15.1 min; for `CCCCCc1cc(O)c2c(c1)OC(C)(C)C1CCC(C(=O)O)=CC21` (stereo unspecified) it is 25.1 min; for `COc1ccc2nc(S(=O)Cc3ncc(C)c(OC)c3C)[nH]c2c1` (stereo unspecified) it is 4.2 min.
For `CCCC(Cc1ccccc1)N1CCCC1` (stereo unspecified), the LC retention time was 2.9 min.
